# In patent US20220047701A1, “COMBINATION OF HER2/NEU ANTIBODY WITH HEME FOR TREATING CANCER” (INSERM (Institut National de la Santé et de la Recherche …, priority 2018, published 2022):
# Legend:
# Trastuzumab [1] = experiment: Induction of polyreactivity of Trastuzumab by heme derivatives; format: binding; settings: for induction of polyreactivity of Trastuzumab: exposure of Trastuzumab to the compound; for rank of potential to induce polyreactivity: reactivity towards bacterial antigens
# Trastuzumab [2] = experiment: Size-exclusion chromatography, induction of Trastuzumab oligomers by heme or heme analogues; format: physicochemical
# Trastuzumab [3] = experiment: SPR binding kinetics and thermodynamics of heme to immobilized Trastuzumab
# Method: Trastuzumab was immobilized on a CMS sensor chip (Biacore) by using amine-coupling kit provided by the manufacturer. The Ab was diluted in 5 mM maleic acid (pH 4) to a final concentration of 10 μg/ml. The achieved immobilization level was 6300 resonance unit (RU). All measurements were performed using HBS-EP (0.01M HEPES, pH 7.4 containing 0.15 M NaCl, 3 mM EDTA and 0.05% Tween 20). Initially, a stock solution of heme (hemin, Frontiers Scientific, Logan, Utah) at 1 mM was prepared in 0.05 N NaOH. Heme was further diluted to 10 μM in the running buffer and 8 two-fold dilutions (10-0.078 μM) were injected at flow rate of 30 μl/min. The association and dissociation phases of the interaction were monitored for 5 min and 10 min, respectively. […]
# Heme was diluted at 10 μM in HBS-EP and injected at flow rate of 30 ul/min. The association and dissociation phases of the interaction were monitored for 5 min and 10 min, respectively. […]
# The kinetic rate constants obtained at different temperatures were used to build Arrhenius plots. The values of slopes of the Arrhenius plots were calculated by using a linear regression analysis of the experimental kinetic data and substituted in Equations 1-4,
# Where the “slope”=∂1n(ka/d/∂(1/T), and where Ea is the activation energy. The enthalpy, entropy, and Gibbs free energy changes characterizing the association phase were calculated using Equations 2-4, […]
# [4] = system: more than 9,000 human proteins; experiment: Protein microarray (ProtoArray) reactivity; format: binding
# Trastuzumab [5] = experiment: Absorbance spectroscopy of heme with Trastuzumab; format: binding
# Method: Absorbance spectra were measured by using UNICAM Helios b, UV-vis spectrophotometer. […] After addition of each heme aliquot and incubation for 2 min in dark, the absorbance spectra in the wavelength range 350-700 nm were recorded. The spectra were scanned at rate of 300 nm/min. All measurements were performed at room temperature, in quartz cuvettes with optical path of 1 cm.
# Trastuzumab [6] = experiment: Quenching of intrinsic tryptophan fluorescence of Trastuzumab by heme; format: binding
# Method: The Ab was diluted to 0.1 μM in PBS and titrated with increasing concentrations (0, 0.01, 0.025, 0.05, 0.1, 0.2, 0.4, 0.8, 1.6 and 3.2 μM) of heme, added as aliquots from a stock solution. A wavelength of 295 nm was used to selectively excite tryptophan residues. Excitation and emission slits were both adjusted to 10 nm. […] Quartz cuvette with 1 cm optical path was used in the experiment. All measurements were performed at room temperature.
# Trastuzumab [7] = experiment: Circular dichroism of Trastuzumab exposed to heme; settings: Ab 1 μM, heme 10 μM
# Method: The CD spectra measurements were performed with JASCO-J710 Spectrometer. Data pitch and slit were both set to 1 nm. The data were recorded at scan speed on 10 nm/min in the range of 260-185 nm. […] The Ab was exposed or not to 10 μM concentration of heme. All spectra were acquired at 20° C. in quartz cuvettes with 1 mm optical path.
# SKBR3 cells = experiment: Direct and complement-mediated cytotoxicity (WST-1), SKBR3; format: cell-based, human; settings: identical concentrations as introduced by heme-bound Trastuzumab
# Method: (§1) Cells were treated on 96-wells plates with flat bottom and low evaporation lid (Coster, USA). MDA-MB-231 or SKBR3 breast cancer cells were plated and left for 2 hours to adhere. […] The Ab was diluted to a final concentration of 3.7 μg/ml. As a source of complement, baby rabbit complement (AbD Serotec) was added to obtain a dilution of ×5 (MDA-MB-231 cells) or ×8 (SKBR3 cells). As control, heat inactivated fetal calf serum was added at the same ratios. To evaluate the amount of alive cells, WST-1 dye (Roche) was added after 5 days of incubation at 37° C. The absorbance at 450 nm and 690 nm was read after 2 hours incubation at 37° C.
# MDA-MB-231 cells = experiment: Direct and complement-mediated cytotoxicity (WST-1), MDA-MB-231; format: cell-based, human; settings: identical concentrations as introduced by heme-bound Trastuzumab
# Method: as §1
# immobilized Trastuzumab = experiment: ELISA induction of antibody homophilicity by heme; format: binding
# Method: The plates were blocked with PBS 0.25% containing Tween 20 for 1 hour. […] IgG was then diluted two times in PBS-T before incubation on plates for 2 h at room temperature. Following extensive washing, the plates were incubated for 30 min with streptavidin-HRP (Southern Biotech).
# IgG was then diluted ten times in PBS-T before incubation on the plates for 2 h at room temperature.
molecule,measurement,setting,value
CC1=Cc2cc3[n-]c(cc4nc(cc5[n-]c(cc1n2)c(C)c5CCC(=O)O)C(CCC(=O)O)=C4C)cc3C.[Fe] [Fe (III) deuteroporphyrin IX],induction of polyreactivity of Trastuzumab,Trastuzumab [1],appearance of novel antigen-binding specificities
same,rank of potential to induce polyreactivity,Trastuzumab [1],most potent inducer of polyreactivity
CC1=C(CCC(=O)O)c2cc3[n-]c(cc4nc(cc5[n-]c(cc1n2)c(CCC(=O)O)c5C)C(CCC(=O)O)=C4C)c(CCC(=O)O)c3C.[Fe+3] [Fe (III) coproporphyrin I],induction of polyreactivity of Trastuzumab,Trastuzumab [1],appearance of novel antigen-binding specificities
CCC1=C(C)C2=NC1=Cc1c(C)c(CC)c3[n]1[Fe][n]1c(c(C)c(CCC(=O)O)c1=CC1=NC(=C3)C(C)=C1CCC(=O)O)=C2 [Fe (III) mesoporphyrin IX],induction of polyreactivity of Trastuzumab,Trastuzumab [1],appearance of novel antigen-binding specificities
same,induction of oligomerization / self-association of Trastuzumab,Trastuzumab [2],able to induce oligomerization of Trastuzumab
iron protoporphyrin IX [heme],Kd,"Trastuzumab [3]; SPR, heme to immobilized Trastuzumab",0.1 µM
same,portion of the Ab binding heme,"Trastuzumab [3]; immobilized Fab fragments, Fc fragments, heme 10 μM",preferential binding to the immobilized Fab portion
same,binding to human proteins,[4],"able to bind to numerous human proteins, but to a lower extent"
same,rank of potential to induce polyreactivity,Trastuzumab [1],lowest potential
same,change in absorbance spectrum,Trastuzumab [5],increased absorbance intensity of heme in high and low energy regions of the spectrum
same,quenching of tryptophan fluorescence,Trastuzumab [6],concentration-dependent decrease in the fluorescence signal
same,change of circular dichroism spectra,Trastuzumab [7],Considerable changes of the circular dichroism ellipticity curves
same,"cell proliferation, heme alone",SKBR3 cells,no negative impact on the cell proliferation
same,"cell proliferation, heme alone",MDA-MB-231 cells,no negative impact on the cell proliferation
"C=CC1=C(C)c2cc3[n-]c(cc4[n-]c(cc5nc(cc1n2)C(C)=C5C=C)c(C)c4CCC(=O)O)c(CCC(=O)O)c3C.[Zn+2] [ZnPP, Zn (II) protoporphyrin IX, reference compound]",induction of oligomerization / self-association of Trastuzumab,Trastuzumab [2],failed to induced antibody homophilicity or oligomerization
same,induction of antibody homophilicity by heme analog,immobilized Trastuzumab,failed to induced antibody homophilicity or oligomerization
